Legend:
Assay in all cases: AUC of viability dose-response curve (% viability x log10 dose units); higher = less sensitive
Details in all cases: 48 h
[1] = system: P12-Ichikawa
Summary of the method: (§1)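 Leukemia cells adapted to each medium were seeded in 1536-well plates (500 or 1000 cells/well). They were dosed with library compounds in DMSO at 11 threefold doses, 47 μM to 0.79 nM, for 48 h at 37°C. CellTiter-Glo One luminescence was normalised per plate to DMSO and cell-free wells. Area under the curve was integrated by trapezoidal rule over log10 doses on a four-parameter log-logistic fit; curves exceeding full viability were scaled and curves failing quality control removed.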

[2] = system: NOMO1
Summary of the method: as §1

[3] = system: SEM cells
Summary of the method: as §1

[4] = RPMI 5 mM glucose + 10% dialyzed FBS

Row | Compound | AUC of viability dose-response curve ([1]; HPLM + 10% dialyzed FBS) | AUC of viability dose-response curve ([1]; RPMI 5 mM glucose + 10% FBS) | AUC of viability dose-response curve [1, 4] | AUC of viability dose-response curve ([2]; HPLM + 10% dialyzed FBS) | AUC of viability dose-response curve ([2]; RPMI 5 mM glucose + 10% FBS) | AUC of viability dose-response curve [2, 4] | AUC of viability dose-response curve ([3]; HPLM + 10% dialyzed FBS) | AUC of viability dose-response curve ([3]; RPMI 5 mM glucose + 10% FBS) | AUC of viability dose-response curve [3, 4]
1 | C[C@H]([C@H](O)CCC(C)(C)O)[C@H]1CC[C@@]2(O)C/3=C/C(=O)[C@@H]4C[C@@H](O)[C@@H](O)C[C@]4(C)[C@H]3CC[C@]12C | 460 | 452 | 470 | 470 | 468 | 476 | 461 | 458 | 474
2 | O=C(NC1CCOCC1)c1ccc(-c2cc(-c3c[nH]nc3-c3ccccn3)ccn2)cc1 | 463 | 448 | 435 | 458 | 465 | 466 | 464 | 474 | 453
3 | CN(C)Cc1ccc(-c2nc3cccc4c3n2CCNC4=O)cc1 | 461 | 463 | 466 | 464 | 458 | 452 | 455 | 459 | 462
4 | CSC1=CC(=CC=C1)NC2=NC3=C(C=N2)/C=C(C(=O)N3C)/C4=C(Cl)C=CC=C4Cl | 476 | 469 | 464 | 467 | 467 | 460 | 417 | 455 | 407
5 | CN(C)CCOC(c1ccccc1)c1ccccc1 | 471 | 473 | 469 | 470 | 459 | 467 | 460 | 473 | 452
6 | C[C@H]1CN(C[C@@H](C)O1)CC(=O)NC2=CC=C3SC4=C(CC3=C2)C=CC=C4\C5=C\C(=O)\C=C(/O5)N6CCOCC6 | – | – | – | 397 | 439 | 433 | – | – | –
7 | COC1=CC=C2Nc3cc(Cl)ccc3C(N=C3C=C(CN4CCCC4)C(=O)C(CN4CCCC4)=C3)=C2N1 | 472 | 468 | 469 | 472 | 459 | 475 | 435 | 449 | 437
8 | COc1cc2c(N3CCN(C(=O)Nc4ccc(OC(C)C)cc4)CC3)ncnc2cc1OCCCN1CCCCC1 | 406 | 360 | 369 | 395 | 357 | 371 | – | – | –
9 | Cc1c[nH]c(/C=C2\C(=O)Nc3ccccc32)c1CCC(=O)O | 436 | 413 | 390 | 399 | 440 | 428 | – | – | –
10 | CC(=O)N1CCN(c2ccc(OCc3nn(C)c(C)c3-c3cccc4c(CCCOc5cc(C)c(Cl)c(C)c5)c(C(=O)O)n(Cc5cccnc5)c34)cc2)CC1 | 461 | 459 | 467 | 469 | 471 | 457 | 453 | 413 | 441
11 | CCCCN(CCCC)CCC(O)c1cc2c(Cl)cc(Cl)cc2c2cc(C(F)(F)F)ccc12 (configuration not stated) | 466 | 459 | 452 | 453 | 459 | 471 | 442 | 408 | 415
12 | O=C/1\C=C(/OC(=C1)/C2=C3SC4=C(SC3=CC=C2)C=CC=C4)N5CCOCC5 | – | – | – | – | – | – | 417 | 409 | 411
13 | Cc1cc2c(C(C)C)c(O)c(O)c(C=O)c2c(O)c1-c1c(C)cc2c(C(C)C)c(O)c(O)c(C=O)c2c1O | 453 | 451 | 452 | 445 | 449 | 452 | 459 | 447 | 444
14 | O=C1\C=C(/OC2=C1C=CC=C2C3=CC=CC=C3)N4CCOCC4 | 432 | 393 | 397 | 410 | 392 | 390 | – | – | –
15 | O=C1Nc2ccccc2/C1=C1\Nc2ccccc2C1=O | 459 | 467 | 471 | 448 | 447 | 442 | – | – | –
16 | COc1cc2nccc(Oc3ccc(NC(=O)Nc4cc(C)on4)c(Cl)c3)c2cc1OC | 458 | 453 | 455 | 471 | 449 | 467 | – | – | –
17 | C=C(C)[C@@H]1CC[C@]2(C)CC[C@]3(C)[C@H](CC[C@@H]4[C@@]5(C)CC[C@H](O)C(C)(C)[C@@H]5CC[C@]43C)[C@@H]12 | 458 | 467 | 459 | 444 | 466 | 446 | – | – | –
18 | CC/1=C/N([C@@H]2C[C@@H](O)[C@H](CO)O2)C(=O)NC1=O | 388 | 353 | 338 | 453 | 408 | 413 | – | – | –
19 | COc1cc2nccc(Oc3ccc(NC(=O)C4(C(=O)Nc5ccc(F)cc5)CC4)cc3)c2cc1OC | 436 | 440 | 427 | 433 | 457 | 442 | – | – | –
20 | CN(N=O)C(=O)N[C@H]1C(O)OC(CO)[C@@H](O)[C@@H]1O (some centres not stated) | 397 | 383 | 368 | 428 | 391 | 375 | – | – | –
21 | Cc1nc(Nc2ncc(C(=O)Nc3c(C)cccc3Cl)s2)cc(N2CCN(CCO)CC2)n1 | 358 | 396 | 398 | 448 | 461 | 447 | – | – | –
